Test results published in US20250034136A1 (Nimbus Wadjet, Inc., priority 2023, published 2025).
pEC50, pIC50: −log10 of the molar value. Where two headings read alike, the source gives them in different places.

What was measured:
[1] = test system: p21 induction in HCT116 cells; assay: p21 induction in HCT116 cells; format: cell-based; conditions: Homo sapiens, HCT-116, 24 h, read-out: P21_EC50
Summary of the method: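 HCT116 cells, 2,000/well, treated 24 h at 37 °C with 11-point compound dilutions in duplicate. Fixed, then immunostained for p21 and GAPDH and read by near-IR imaging at 800/700 nm. Normalized to DMSO (low) and reference WRN inhibitor (high) controls; EC50 from non-linear regression.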

[2] = target: WRN (BV08), human Werner helicase (Uniprot Q14191, amino acids 517-1235 with L1074F point mutation) (Homo sapiens (Human), UniProt Q14191, L1074F); assay: WRN (BV08) ADP-Glo assay; format: biochemical; conditions: class symbols A-E, read-out: ADP-Glo_hWRN_IC50
Chain of WRN (BV08), human Werner helicase (Uniprot Q14191, amino acids 517-1235 with L1074F point mutation) (Q14191 other isoform, or with tags, fused parts or gaps L1074F (already in the parent)): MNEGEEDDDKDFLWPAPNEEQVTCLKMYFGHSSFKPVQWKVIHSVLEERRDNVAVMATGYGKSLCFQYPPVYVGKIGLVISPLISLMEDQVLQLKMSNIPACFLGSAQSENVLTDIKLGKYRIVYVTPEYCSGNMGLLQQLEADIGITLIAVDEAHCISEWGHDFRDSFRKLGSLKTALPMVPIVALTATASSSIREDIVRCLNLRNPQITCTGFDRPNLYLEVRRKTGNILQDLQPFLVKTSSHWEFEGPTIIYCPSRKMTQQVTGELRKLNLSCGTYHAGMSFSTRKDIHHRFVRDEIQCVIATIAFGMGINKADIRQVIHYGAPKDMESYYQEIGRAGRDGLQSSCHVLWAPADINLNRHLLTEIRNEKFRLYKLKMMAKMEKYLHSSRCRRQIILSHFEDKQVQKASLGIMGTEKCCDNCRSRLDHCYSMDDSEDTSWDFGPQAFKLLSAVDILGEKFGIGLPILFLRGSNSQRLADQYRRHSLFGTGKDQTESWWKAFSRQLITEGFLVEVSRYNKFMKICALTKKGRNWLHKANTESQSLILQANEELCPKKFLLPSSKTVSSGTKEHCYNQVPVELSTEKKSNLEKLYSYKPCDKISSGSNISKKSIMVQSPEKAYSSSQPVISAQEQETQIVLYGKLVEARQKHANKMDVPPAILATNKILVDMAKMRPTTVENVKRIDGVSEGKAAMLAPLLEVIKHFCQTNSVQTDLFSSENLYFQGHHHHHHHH

[3] = HCT116 cells, 24 h compound incubation

| SMILES | pEC50 [1, 3] | pIC50 [2] | pEC50 [1] |
| --- | --- | --- | --- |
| CCc1c(N2CCN(C(=O)c3ncnc(C)c3O)CC2)c(=O)c2nc(N3C[C@@H]4[C@H](C3)[C@H]4N(C)C)cnc2n1CC(=O)Nc1ccc(C(F)(F)F)cc1Cl [I-155, N-[2-chloro-4-(trifluoromethyl)phenyl]-2-{2-[(1R,5S,6S)-6-(dimethylamino)-3-azabicyclo[3.1.0]hexan-3-yl]-6-ethyl-7-[4-(5-hydroxy-6-methylpyrimidine-4-carbonyl)piperazin-1-yl]-8-oxo-5H,8H-pyrido[2,3-b]pyrazin-5-yl}acetamide] | < 5.30 | 7.00 to 7.30 |  |
| CCc1c(N2CCN(C(=O)c3c(OC)ncc(C4CCOC4)c3O)[C@H]3CC[C@@H]32)c(=O)c2nc(N(C)C)cnc2n1CC(=O)Nc1ccc(C(F)(F)F)cc1Cl (stereo partly drawn) [I-287, N-[2-chloro-4-(trifluoromethyl)phenyl]-2-[2-(dimethylamino)-6-ethyl-7-[(1S,6S)-5-[4-hydroxy-2-methoxy-5-(oxolan-3-yl)pyridine-3-carbonyl]-2,5-diazabicyclo[4.2.0]octan-2-yl]-8-oxo-5H,8H-pyrido[2,3-b]pyrazin-5-yl]acetamide] | > 6.30 | 7.30 to 8.30 |  |
| CCc1c(N2CCN(C(=O)c3ncnc(C)c3O)CC2)c(=O)c2nc(C(F)F)c(C)nc2n1CC(=O)Nc1ccc(C(F)(F)F)cc1Cl [I-28, N-(2-chloro-4-(trifluoromethyl)phenyl)-2-(2-(difluoromethyl)-6-ethyl-7-(4-(5-hydroxy-6-methylpyrimidine-4-carbonyl)piperazin-1-yl)-3-methyl-8-oxopyrido[2,3-b]pyrazin-5(8H)-yl)acetamide] | < 5.30 | 7.30 to 8.30 |  |
| CCc1c(N2CCN(C(=O)c3c(OCCOC)ncc(C)c3O)[C@H]3CC[C@@H]32)c(=O)c2nc(N(C)C)cnc2n1CC(=O)Nc1ccc(C(F)(F)F)cc1Cl [I-282, N-[2-chloro-4-(trifluoromethyl)phenyl]-2-[2-(dimethylamino)-6-ethyl-7-[(1S,6S)-5-[4-hydroxy-2-(2-methoxyethoxy)-5-methylpyridine-3-carbonyl]-2,5-diazabicyclo[4.2.0]octan-2-yl]-8-oxo-5H,8H-pyrido[2,3-b]pyrazin-5-yl]acetamide] | > 6.30 | 7.30 to 8.30 |  |
| CCc1c(N2CCN(C(=O)c3ncnc(C)c3O)[C@H]3CC[C@@H]32)c(=O)c2nc(C3CC3)cnc2n1CC(=O)Nc1ccc(C(F)(F)F)cc1F [I-125, 2-(2-cyclopropyl-6-ethyl-7-((1S,6S)-5-(5-hydroxy-6-methylpyrimidine-4-carbonyl)-2,5-diazabicyclo[4.2.0]octan-2-yl)-8-oxopyrido[2,3-b]pyrazin-5(8H)-yl)-N-(2-fluoro-4-(trifluoromethyl)phenyl)acetamide] | > 6.30 | ≥ 8.30 |  |
| CCc1c(N2CCN(C(=O)c3c(OC)ncc(C)c3O)[C@H]3CCC[C@H]32)c(=O)c2nc(N(C)C)cnc2n1CC(=O)Nc1ccc(C(F)(F)F)cc1Cl (single isomer, unassigned) [I-252, N-(2-chloro-4-(trifluoromethyl)phenyl)-2-(2-(dimethylamino)-6-ethyl-7-(4-(4-hydroxy-2-methoxy-5-methylnicotinoyl)octahydro-1H-cyclopenta[b]pyrazin-1-yl)-8-oxopyrido[2,3-b]pyrazin-5(8H)-yl)acetamide] | 5.30 to 5.70 | 6.30 to 7.00 |  |
| CCc1c(N2CCN(C(=O)c3ncnc(C)c3O)C3(CCC3)C2)c(=O)c2nc(N(C)C)cnc2n1CC(=O)Nc1ccc(C(F)(F)F)cc1Cl [I-216, N-[2-chloro-4-(trifluoromethyl)phenyl]-2-[2-(dimethylamino)-6-ethyl-7-[5-(5-hydroxy-6-methylpyrimidine-4-carbonyl)-5,8-diazaspiro[3.5]nonan-8-yl]-8-oxo-5H,8H-pyrido[2,3-b]pyrazin-5-yl]acetamide] | < 5.30 | 7.00 to 7.30 |  |
| CCc1c(N2CCN(C(=O)c3[nH]nc(C)c3O)CC2)c(=O)c2ncc(C)nc2n1CC(=O)Nc1ccc(C(F)(F)F)cc1Cl [I-32, N-(2-chloro-4-(trifluoromethyl)phenyl)-2-(6-ethyl-7-(4-(4-hydroxy-3-methyl-1H-pyrazole-5-carbonyl)piperazin-1-yl)-3-methyl-8-oxopyrido[2,3-b]pyrazin-5(8H)-yl)acetamide] | < 5.30 | 7.00 to 7.30 |  |
| CCc1c(N2CCN(C(=O)c3ncnc(C)c3O)CC2)c(=O)c2nc(N(C)[C@H]3CC[C@H]3OC)cnc2n1CC(=O)Nc1ccc(C(F)(F)F)cc1Cl (racemic) [I-146, rac-N-(2-chloro-4-(trifluoromethyl)phenyl)-2-(6-ethyl-7-(4-(5-hydroxy-6-methylpyrimidine-4-carbonyl)piperazin-1-yl)-2-((2-methoxycyclobutyl)(methyl)amino)-8-oxopyrido[2,3-b]pyrazin-5(8H)-yl)acetamide] | 5.30 to 5.70 | 7.30 to 8.30 |  |
| C=Cc1nc2c(=O)c(N3CCN(C(=O)c4ncnc(C)c4O)CC3)c(CC)n(CC(=O)Nc3ccc(C(F)(F)F)cc3Cl)c2nc1C [I-18, N-(2-chloro-4-(trifluoromethyl)phenyl)-2-(6-ethyl-7-(4-(5-hydroxy-6-methylpyrimidine-4-carbonyl)piperazin-1-yl)-3-methyl-8-oxo-2-vinylpyrido[2,3-b]pyrazin-5(8H)-yl)acetamide] |  | 7.30 to 8.30 | 5.70 to 6.30 |
| C=C(F)c1cnc2c(n1)c(=O)c(N1CCN(C(=O)c3ncnc(C)c3O)CC1)c(CC)n2CC(=O)Nc1ccc(C(F)(F)F)cc1Cl [I-157, N-[2-chloro-4-(trifluoromethyl)phenyl]-2-[6-ethyl-2-(1-fluoroethenyl)-7-[4-(5-hydroxy-6-methylpyrimidine-4-carbonyl)piperazin-1-yl]-8-oxo-5H,8H-pyrido[2,3-b]pyrazin-5-yl]acetamide] | 5.70 to 6.30 | 7.30 to 8.30 |  |
| CCc1c(N2CCN(C(=O)c3ncnc(C)c3O)CC2)c(=O)c2nc([C@H]3CC3(F)F)cnc2n1CC(=O)Nc1ccc(C(F)(F)F)cc1Cl (single isomer, unassigned) [I-238] | < 5.30 | 7.30 to 8.30 |  |
| CCc1c(N2CCN(C(=O)c3ncnc(C)c3O)[C@H]3CC[C@@H]32)c(=O)c2nc(N(C)C)cnc2n1CC(=O)Nc1ccc(C(F)(F)F)cc1C [I-103, 2-(2-(dimethylamino)-6-ethyl-7-((1S,6S)-5-(5-hydroxy-6-methylpyrimidine-4-carbonyl)-2,5-diazabicyclo[4.2.0]octan-2-yl)-8-oxopyrido[2,3-b]pyrazin-5(8H)-yl)-N-(2-methyl-4-(trifluoromethyl)phenyl)acetamide] | > 6.30 | 7.30 to 8.30 |  |
| CCc1c(N2CCN(C(=O)c3ncnc(C)c3O)[C@H]3CC[C@@H]32)c(=O)c2nc(N(C)C)cnc2n1CC(=O)Nc1ccc(C(F)(F)F)cc1F [I-121, 2-(2-(dimethylamino)-6-ethyl-7-((1S,6S)-5-(5-hydroxy-6-methylpyrimidine-4-carbonyl)-2,5-diazabicyclo[4.2.0]octan-2-yl)-8-oxopyrido[2,3-b]pyrazin-5(8H)-yl)-N-(2-fluoro-4-(trifluoromethyl)phenyl)acetamide] | > 6.30 | 7.30 to 8.30 |  |
| CCc1c(N2CCN(C(=O)c3ncnc(C)c3O)CC2)c(=O)c2nc(OC3COC3)cnc2n1CC(=O)Nc1ccc(C(F)(F)F)cc1Cl [I-140, N-[2-chloro-4-(trifluoromethyl)phenyl]-2-{6-ethyl-7-[4-(5-hydroxy-6-methylpyrimidine-4-carbonyl)piperazin-1-yl]-2-(oxetan-3-yloxy)-8-oxo-5H,8H-pyrido[2,3-b]pyrazin-5-yl}acetamide] | < 5.30 | < 6.30 |  |
| CCc1c(N2CCN(C(=O)c3ncnc(C)c3O)CC2)c(=O)c2nc(N(C)[C@H]3C[C@H](OC)C3)cnc2n1CC(=O)Nc1ccc(C(F)(F)F)cc1Cl [I-92, N-(2-chloro-4-(trifluoromethyl)phenyl)-2-(6-ethyl-7-(4-(5-hydroxy-6-methylpyrimidine-4-carbonyl)piperazin-1-yl)-2-(((1r,3r)-3-methoxycyclobutyl)(methyl)amino)-8-oxopyrido[2,3-b]pyrazin-5(8H)-yl)acetamide] | 5.70 to 6.30 | 7.30 to 8.30 |  |
| CCc1c(N2CCN(C(=O)c3c(OC)ncc(C)c3O)C[C@@H]2C)c(=O)c2nc(N3CC[C@@H]4C[C@@H]43)cnc2n1CC(=O)Nc1ccc(C(F)(F)F)cc1Cl (single isomer, unassigned) [I-232] | > 6.30 | 7.30 to 8.30 |  |
| CCc1c(N2CCN(C(=O)c3ncnc(C)c3O)CC2)c(=O)c2nc(C=C3CCC3)cnc2n1CC(=O)Nc1ccc(C(F)(F)F)cc1Cl [I-38, N-(2-chloro-4-(trifluoromethyl)phenyl)-2-(2-(cyclobutylidenemethyl)-6-ethyl-7-(4-(5-hydroxy-6-methylpyrimidine-4-carbonyl)piperazin-1-yl)-8-oxopyrido[2,3-b]pyrazin-5(8H)-yl)acetamide] | > 6.30 | ≥ 8.30 |  |
| CCc1c(C2=CCN(C(=O)c3ncnc(C)c3O)CC2)c(=O)c2nc(N(C)C)cnc2n1CC(=O)Nc1ccc(C(F)(F)F)cc1Cl [I-213, N-[2-chloro-4-(trifluoromethyl)phenyl]-2-[2-(dimethylamino)-6-ethyl-7-[1-(5-hydroxy-6-methylpyrimidine-4-carbonyl)-1,2,3,6-tetrahydropyridin-4-yl]-8-oxo-5H,8H-pyrido[2,3-b]pyrazin-5-yl]acetamide] | 5.70 to 6.30 | 7.30 to 8.30 |  |
| CCc1c(N2CCN(C(=O)c3ncnc(C)c3O)CC2)c(=O)c2nc(N(C)C3CC(OC)C3)cnc2n1CC(=O)Nc1ccc(C(F)(F)F)cc1Cl (stereo not shown) [I-60, N-(2-chloro-4-(trifluoromethyl)phenyl)-2-(6-ethyl-7-(4-(5-hydroxy-6-methylpyrimidine-4-carbonyl)piperazin-1-yl)-2-((3-methoxycyclobutyl)(methyl)amino)-8-oxopyrido[2,3-b]pyrazin-5(8H)-yl)acetamide] | 5.70 to 6.30 | 7.30 to 8.30 |  |
